Measurements as given in PubChem BioAssay AID179 (DTP/NCI, 2004).
The source made the active and inactive calls.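 The calls were made as follows: active = compounds giving half or more protection of infected cells from virus-caused growth loss, again on retest; inactive = the rest.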

Tested on: CEM cells HIV-1 protection, formazan growth assay
Experiment: NCI AIDS Antiviral Assay
Settings: for IC50: measured here: growth of uninfected CEM cells
Summary of the method: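 Protection of CEM cells against HIV-1 measured as cell growth via soluble formazan read-out, with five concentrations tested on both infected and uninfected cells; failure to protect may reflect toxicity.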

Structure (SMILES)	EC50	IC50	outcome
CCOC(=O)c1c(-c2ccccc2)c(C)cn1C	> 200 µM	120 µM	–
O=C1O/C(=C(/Cl)c2c3ccccc3cc3ccccc23)c2ccccc21	> 200 µM	10.2 µM	–
S=C1SC(=Nc2ccccc2)C(=Nc2ccccc2)N1c1ccc2ccccc2c1	> 200 µM	14.1 µM	–
CN1Cc2cc3cc4c(cc3nc2N(C)C1)OCCO4	> 200 µM	162 µM	–
CCOc1ccccc1/C=C1\NC(=O)N(/C=C2\C(=O)Oc3ccccc3C2=O)C1=O	> 200 µM	87.1 µM	–
CN1C(=O)c2ccccc2OC12C=Cc1ccc(O)cc1O2 (centres undefined)	> 132 µM	45.7 µM	–
C[CH2][Sn]([CH2]C)([O]C(=O)c1ccccc1F)[O]C(=O)c1ccccc1F	> 29.5 µM	17.4 µM	–
Nc1cc(-c2ccc(Cl)cc2)nn1-c1nnc2c(n1)[nH]c1ccccc12	> 200 µM	> 200 µM	–
CC(CCC(=O)O)C1CCC2C3C(O)CC4CC(O)CCC4(C)C3CC(O)C12C (centres undefined) (tested in a mixture with another compound)	> 200 µM	> 200 µM	–
O=C(O)c1ccsc1C(=O)c1ccccc1	> 200 µM	> 200 µM	–
CCCCCCCCCCCCOP(=O)(O)OP(=O)(O)OCC1OC(n2ccc(N)nc2=O)CC1O (centres undefined)	57.5 µM	> 100 µM	–
CN1CC2=C(NC(=S)NC2c2ccccc2Cl)/C(=C/c2ccccc2Cl)C1 (centres undefined)	> 200 µM	13.2 µM	–
O=C(C1OC1c1ccc([N+](=O)[O-])cc1)C12CC3CC(CC(C3)C1)C2 (centres undefined)	> 200 µM	12.3 µM	–
CCOC(=O)N1CCN(C(=O)Nc2cccc3ccccc23)CC1	–	–	inactive
O=C(CCCn1cnc([N+](=O)[O-])n1)NCCn1ccnc1[N+](=O)[O-]	> 200 µM	> 200 µM	–
CCOC(=O)CC(=O)Nc1cccc2sc3ncccc3c(=O)c12	> 200 µM	30.2 µM	–
CC(C)c1ccc(/C=C2\CSCC3=C2N=C2SCC(=O)N2C3c2ccc(C(C)C)cc2)cc1 (centres undefined)	> 200 µM	107 µM	–
CNC(=O)SC1=NS(=O)(=O)c2ccc(Cl)cc2N1	51.3 µM	186 µM	–
Cc1ccc2c(c1)nc(N)n[n+]2[O-]	> 100 µM	> 100 µM	–
CCCCc1ccc(Nc2nc(=S)c3[nH]cnc3[nH]2)cc1	> 200 µM	44.7 µM	–
CN(C)c1ccc(/C=C/c2ccnc3ccc4ccccc4c23)cc1	> 79.4 µM	> 79.4 µM	–
O=C1c2c(nc3ccccc3c2-c2ccccc2)CN1Nc1ccccn1	> 141 µM	> 141 µM	–
CNC(=O)c1cn(C2OC(CO)C(O)C2O)c2ncnc(N)c12 (centres undefined)	> 2 µM	1.2 µM	–

Structure (SMILES)	EC50	IC50	outcome
Cc1ccccc1NC(=O)CC(=O)n1nc(-c2ccccc2)c(N=Nc2ccc([N+](=O)[O-])cc2)c1-c1ccccc1	> 25.1 µM	16.2 µM	–
Cc1cc(S(=O)(=O)NC2=NCC(C)NN2)c(S)cc1Cl (centres undefined)	> 200 µM	39.8 µM	–
CCN(CC)C(=S)SS(=O)(=O)c1ccc(Cl)cc1	> 200 µM	12 µM	–
O=C(O)C[C@H]1CCCCC12CCOC2=O (some centres undefined)	–	–	inactive
Clc1c(Cl)c(Cl)c2nn(C3CCCO3)nc2c1Cl (centres undefined)	> 200 µM	39.8 µM	–
Cc1ccc(OCC2OC(n3cnc4c(Cl)nc(N)nc43)CC2Oc2ccc(C)cc2)cc1 (centres undefined)	> 200 µM	66.1 µM	–
N[C@H]1c2ccsc2C(=O)[C@H]1O	> 1 µM	> 1 µM	–
Cc1ccc(C)n1-n1c(-c2ccccc2)n[nH]c1=O	> 200 µM	89.1 µM	–
CCCCC(C(=O)O)C1=CCCCC1 (centres undefined)	–	–	inactive
COC1=CC(=O)[C@@]2(OC)C(=O)c3c(cc4cc(O)c(C(O)OC)c(C)c4c3O)C(=O)[C@@]2(O)C1OC1OC(C)C(OC)C(OC)C1OC (some centres undefined)	> 93.3 µM	64.6 µM	–
O=S(=O)(O)SCC1=NCCN1	> 200 µM	> 200 µM	–
COc1ccc(C(c2c(O)c3ccccc3oc2=O)N2CCOCC2)c(OC)c1 (centres undefined)	> 200 µM	91.2 µM	–
COc1cc(COC(=O)N2CSCC2C(=O)O)c([N+](=O)[O-])cc1OC (centres undefined)	> 676 µM	> 676 µM	–
CSc1nc(Cl)c2c(n1)Sc1nc3cc4c(cc3n1C2O)OCCO4 (centres undefined)	> 0.2 µM	0.0794 µM	–
CCOC(=O)c1nc2c(OC)nn(O)cc-2c1Br	> 794 µM	> 794 µM	–
Cc1n[nH]c(=O)n1C1CCCC1	> 200 µM	> 200 µM	–
C=CCn1c(-c2ccc(Cl)cc2Cl)csc1=Nc1c(C)n(C)n(-c2ccccc2)c1=O	> 200 µM	6.61 µM	–
c1ccc(-c2nc(-c3ccccc3SSc3ccccc3-c3nc(-c4ccccc4)nn3-c3ccccc3)n(-c3ccccc3)n2)cc1	> 100 µM	> 100 µM	–
O=S1(=O)NNC(=NCc2ccc(Cl)c(Cl)c2)c2ccccc21	–	–	inactive
COC(=O)C(=O)C(/C=N/C(=S)NCCc1ccc(OC)c(OC)c1)=C(/O)c1ccc([N+](=O)[O-])cc1	> 100 µM	> 100 µM	–
COc1ccccc1-n1nnc2c(N)nc(N)nc21	> 200 µM	> 200 µM	–
O=C1NC2(CCCC2)C(=O)C12CCCC2	–	–	inactive
COC1(OC)CC(CO)(CNc2nc(N)nc(Cl)c2C=O)C1	> 162 µM	14.1 µM	–

Structure (SMILES)	EC50	IC50	outcome
COc1ccc2c(c1)c1c(n2CCN(C)C)-c2ccccc2CC1	> 200 µM	14.8 µM	–
O=[N+]([O-])c1ccc2c(N=Nc3ccc4ccccc4c3O)c(O)cc(S(=O)(=O)O)c2c1	> 200 µM	27.5 µM	–
CCCCNCCCC.[C-]#[O+].[C-]#[O+].[C-]#[O+].[C-]#[O+].[C-]#[O+].[Cr]	> 200 µM	56.2 µM	–
CN1C(=O)N/C(=C\c2ccc(S(=O)(=O)NN)cc2)C1=O	> 200 µM	> 100 µM	–
COc1ccccc1C1(c2ccccc2OC)OC(=O)c2ccccc21	> 200 µM	30.9 µM	–
C/C(=N\Nc1ccc([N+](=O)[O-])cc1[N+](=O)[O-])c1sc(-n2nc(-c3ccccc3)cc2-c2ccccc2)nc1C	> 126 µM	42.7 µM	–
CCOC(=O)C(C(=O)OCC)=c1sc(=C(C(=O)OCC)C(=O)OCC)s1	–	–	inactive
N#CCCN(CCO)CCO	> 200 µM	> 200 µM	–
N.N.N.N.N.O=[N+]([O-])[O-].[Co+3].[O-][Cl+3]([O-])([O-])[O-]	–	–	inactive
O=C(O)c1ccccc1SCc1cc(O)ccc1O	> 200 µM	30.9 µM	–
COc1cc(Cc2nnc(SC)nc2C)cc(OC)c1OC	10 µM	22.4 µM	–
Cc1ccc(S(=O)(=O)N2CCCN(S(=O)(=O)c3ccc(C)cc3)CC2)cc1	> 45.7 µM	> 45.7 µM	–
CCOC(=O)C1=C(C)C2C=C(c3cccs3)CC(c3ccc(Cl)cc3)=C2OC1=O (centres undefined)	> 200 µM	91.2 µM	–
CNNC1=NS(=O)(=O)c2cc(C(=O)OC)c(Cl)cc2S1	> 200 µM	> 200 µM	–
COc1ccc2c(c1)Oc1cc(O)ccc1[C@@H]2c1ccccc1C(=O)NC(C)c1ccccc1 (some centres undefined)	> 15.8 µM	14.5 µM	–
CC1Nc2ccccc2NC1C=C(C#N)C#N (centres undefined)	> 44.7 µM	6.76 µM	–
CCOC(=O)/C=C(/OCC)[C@@H]1C(C(=O)c2ccc(Cl)cc2)[C@@H]1/C(=C\C(=O)OCC)OCC (some centres undefined)	> 200 µM	5.89 µM	–
Cc1ccc(-c2nc(-c3cnccn3)n(C3OC(CO)C(O)C(O)C3O)n2)cc1 (centres undefined)	> 200 µM	> 200 µM	–
O=C1NC(=O)C(=Cc2ccccc2[N+](=O)[O-])C(=O)N1	–	–	inactive
C/C=C/[C@@H](C(=O)OC)N1C(=O)c2ccccc2[C@H]1O	> 200 µM	> 200 µM	–
CCOC(=O)C(NC(=O)c1[nH]cnc1/N=N/N(C)C)C(C)C (centres undefined)	> 23.4 µM	> 23.4 µM	–
COC(=O)c1ccccc1N=Cc1ccc(N(CCC#N)S(=O)(=O)c2ccccc2)cc1	> 562 µM	479 µM	–
CCN(CCCl)CCCCNc1c2ccccc2nc2ccc(OC)cc12	–	–	inactive

Structure (SMILES)	EC50	IC50	outcome
CC(=O)NC1(C)CC[C@H]2CC1C(C)=NC2(C)C (some centres undefined)	> 1050 µM	> 1050 µM	–
CCCCCCCCCCCC1=C(NCCN)C(=O)C=C(NCCN)C1=O	> 2 µM	> 2 µM	–
O=C(CSc1nnc(-c2ccc(N=Cc3ccc(Cl)cc3)cc2)o1)Nc1ccc(Cl)cc1	> 269 µM	141 µM	–
O=C1c2cccnc2S(=O)N1Cc1ccccc1 (centres undefined)	105 µM	> 200 µM	–
CCOC(=O)C(c1ccsc1)P(=O)(OCC)OCC (centres undefined)	> 813 µM	28.2 µM	–
Nc1cnn2cnnc2c1	> 200 µM	> 200 µM	–
Cc1ccccc1NC(=O)C(=O)CC(=O)c1sc(Nc2ccccc2[N+](=O)[O-])nc1C	> 200 µM	> 200 µM	–
O=C(NCCSSCCNC(=O)/C(Cc1ccc(O)c(Br)c1)=N/O)/C(Cc1ccc(O)c(Br)c1)=N/O	–	–	inactive
C[C@@]12C[C@@H](c3ccccc3O1)N1CCCSC1=N2	74.1 µM	> 200 µM	–
CC1(C)SC2C(NC(=O)C(C(=O)O)c3ccccc3)C(=O)N2C1C(=O)O (centres undefined)	> 200 µM	> 200 µM	–
Cc1nn(C)c(N)c1N=O	> 200 µM	> 200 µM	–
C=CCC(C)(C(=O)NCCC)C(=O)c1ccccc1O (centres undefined)	–	–	inactive
Brc1c2c(c(Br)c3nsnc13)N=S=N2	–	–	inactive
O=[N+]([O-])c1cccc(/C=N/NC2=CS(=O)(=O)C=C2)c1	> 67.6 µM	> 67.6 µM	–
CN(C)c1ncnc2c1ncn2C1OC(CO)CC1F (centres undefined)	141 µM	178 µM	–
COC(=O)C(=O)C(C(=O)C(=O)Nc1ccc([N+](=O)[O-])cc1)c1nc2ccccc2[nH]c1=O (centres undefined)	> 575 µM	72.4 µM	–
CNC(=O)NCCc1c[nH]c2ccccc12	> 200 µM	> 200 µM	–
NNC(=O)c1nnc(NN)[nH]c1=O	> 200 µM	> 200 µM	–
COc1ccc(C=O)cc1Oc1ccc(C[C@H]2c3c(cc(OC)c4c3Oc3cc5c(cc3O4)CCN(C)C5=O)CCN2C)cc1	> 200 µM	9.77 µM	–
CCC(CC)C(=O)NCC(=O)NO	> 200 µM	> 200 µM	–
N#Cc1c(N)c(C(=O)Nc2ccc(S(N)(=O)=O)cc2)n2c1CCC2	> 200 µM	> 200 µM	–
OCC1CCCC1O (centres undefined)	–	–	inactive
